# Data: patent US8383607B2, “Perifosine and capecitabine as a combined treatment for cancer” (AEterna Zentaris GmbH, priority 2011, dated 2013)
# Where two headings read alike, the source gives them in different places.
# Experiments:
# [1] = cited from earlier work; for time of peak blood level after administration: after capecitabine administration
# [2] = system: metastatic colorectal cancer; assay: Phase II randomized placebo-controlled expanded study: perifosine with capecitabine vs capecitabine alone; format: in vivo, human
# Method: As outlined above, the randomized placebo-controlled study was performed in order to evaluate the effects of perifosine in combination with various cytotoxic agents (i.e., gemcitabine, paclitaxel, docetaxel, doxorubicin, capecitabine, pemetrexed, irinotecan and pegylated liposomal doxorubicin) and to determine if co-administering perifosine and each of these cytotoxic agents results in synergy, and if such synergy overcomes resistance to chemotherapy in cancer cells.
# The study was performed on patients having breast cancer, non-small cell lung cancer, colorectal cancer, prostate cancer, ovarian cancer, head and neck cancer or soft tissue sarcoma, who had received at least one prior chemotherapy regimen. The prior regimen must have been different than the single agent administered in this study. Each patient received a single agent chemotherapy regimen which was judged by a physician as likely to be as beneficial to the patient as any other available therapy.
# Patients received either 50 mg perifosine or placebo daily in combination with single-agent chemotherapy.
# Capecitabine: 825 mg/m^2 twice per day (i.e., 1650 mg/m^2 per day) on days 1-14 every 3 weeks, administered orally (used to treat breast, colorectal, head and neck, prostate, and ovarian cancers);
# The time to progression (TTP) was a primary endpoint for the various treatment groups. Overall survival (OS) rates and overall response rates (ORR) of the patients and the proportion of progression-free patients were secondary endpoints. In addition, the safety of the combined treatments was also evaluated.
# Progression and response (complete response or partial response) were determined according to RECIST 1.0 criteria.
# The Kaplan-Meier method was used to calculate times to progression and overall survival. Median values of the TTP and OS were calculated, as well as the confidence intervals (CI) of the TTP and OS at a 95% confidence level. P-values were calculated for the differences between different treatments.
# Safety of treatments was assessed by monitoring adverse events, which were graded according to the NCI CTCAE version 3.0.
# [3] = system: refractory advanced colorectal cancer; assay: Phase I clinical study: safety of 50 mg perifosine daily with 1000 mg/m^2 capecitabine twice per day; settings: first dose perifosine vs perifosine for eleven days
# Method: A Phase I clinical study was performed for evaluating the safety of 50 mg perifosine daily in combination with 1000 mg/m^2 capecitabine twice per day in patients with refractory advanced colorectal cancer. During a 21 day cycle, perifosine was administered every day, whereas capecitabine was administered orally on days 1-14 of the cycle.
# The study was performed on patients having 3rd line or higher metastatic colorectal cancer, with no prior exposure to perifosine, and who had received, or were not candidates for, regimens containing 5-fluorouracil, oxaliplatin, irinotecan, bevacizumab, and cetuximab or panitumumab. The patients had at least one measurable lesion, as well as adequate bone marrow, liver and renal function.
# Toxicity was graded according to the NCI CTCAE version 3.0, and dose limiting toxicity was defined as any of the following: […]
# a) Grade 3 non-hematological toxicity except alopecia, which is not reversible Grade 2 or less within 96 hours; or
# Physical examination (including vital signs, weight and ECOG performance score) was performed prior to initiation of the treatment, and on day 1 (±3 days) of every cycle thereafter. Adverse event evaluations were monitored and reported promptly.
# [4] = system: Advancing colorectal cancer (ACRC); Metastatic colorectal cancer (MCRC); settings: cited from earlier work
# [5] = system: breast cancer, non-small cell lung cancer, colorectal cancer, prostate cancer, ovarian cancer, head and neck cancer or soft tissue sarcoma; assay: Phase II portion: perifosine or placebo with single-agent chemotherapy regimens; format: in vivo, human; settings: 50 mg perifosine or placebo daily with single-agent chemotherapy
# Method: The prior regimen must have been different than the single agent administered in this study. Each patient received a single agent chemotherapy regimen which was judged by a physician as likely to be as beneficial to the patient as any other available therapy. […] The single-agent chemotherapy regimens were as follows: Paclitaxel: 175 mg/m^2 every 3 weeks or 80 mg/m^2 on days 1, 8 and 15 every 4 weeks, by intravenous infusion over 1 to 3 hours (used to treat breast, prostate and lung cancers); Docetaxel: 75 mg/m^2 every 3 weeks or 35 mg/m^2 on days 1, 8 and 15 every 4 weeks, by intravenous infusion over 1 hour (used to treat head and neck, lung, ovarian and prostate cancers); Gemcitabine: 1000 mg/m^2 on days 1 and 8 every 3 weeks, by infusion over 30 minutes (used to treat sarcoma and lung, ovarian, breast and head and neck cancers); Doxorubicin: 60 mg/m^2 every 3 weeks, by infusion over 30 minutes (used to treat sarcoma and prostate, ovarian, and breast cancers); Pegylated liposomal doxorubicin: 40 mg/m^2 every 4 weeks, by infusion over 30 minutes (used to treat sarcoma and ovarian and breast cancers); Capecitabine: 825 mg/m^2 twice per day (i.e., 1650 mg/m^2 per day) on days 1-14 every 3 weeks, administered orally (used to treat breast, colorectal, head and neck, prostate, and ovarian cancers); Pemetrexed: 500 mg/m^2 every 3 weeks, by intravenous infusion over 10 minutes (used to treat lung and colorectal cancers); and Irinotecan: 100 mg/m^2 on days 1, 8 and 15 every 4 weeks, by intravenous infusion over 90 minutes (used to treat sarcoma and colorectal and lung cancers). The time to progression (TTP) was a primary endpoint for the various treatment groups. Overall survival (OS) rates and overall response rates (ORR) of the patients and the proportion of progression-free patients were secondary endpoints. In addition, the safety of the combined treatments was also evaluated. […] The Kaplan-Meier method was used to calculate times to progression and overall survival. Median values of the TTP and OS were calculated, as well as the confidence intervals (CI) of the TTP and OS at a 95% confidence level. P-values were calculated for the differences between different treatments.
# [6] = 5-FU-refractory metastatic colorectal cancer patients, listed as capecitabine alone
# [7] = 5-FU-refractory metastatic colorectal cancer patients, listed as placebo+capecitabine
# [8] = after 12 weeks, 5-FU refractory evaluable patients (14 combination, 11 capecitabine alone)
# [9] = after 12 weeks, evaluable metastatic colorectal cancer patients (20 combination, 15 capecitabine alone)
# [10] = all metastatic colorectal cancer patients, 50 mg perifosine or placebo daily + capecitabine 1650 mg/m^2 per day days 1-14 every 21 days
# [11] = 2x daily 1250 mg/m2 (total 2500 mg/m2), MCRC, Asia-Pac J Clin Oncol. 2011, 82-87
# [12] = 2x daily 1000-1250 mg/m2, ACRC, Acta Oncologica, 2005, 44: 236-239
# [13] = 7 patients 2x daily 1250 mg/m2, after toxicity dose diluted to 1000 mg/m2, ACRC, Anticancer Res. 26: 1669-1672 (2006)
compound,measurement,setting,value
O=c1[nH]cc(F)c(=O)[nH]1 [5-fluorouracil],time of peak blood level after administration,[1],2 h
CCCCCOC(=O)Nc1nc(=O)n([C@@H]2O[C@H](C)[C@@H](O)[C@H]2O)cc1F [capecitabine],time of peak blood level after administration,[1],about 1.5 hours
same,effect of food on capecitabine absorption,[1]; in vivo,reduces both the rate and extent
same,elimination half-life,[1]; in vivo,about ¾
same,Median OS,[2]; 5-FU refractory,6.6 mo. for 5-FU
same,Median TTP,[2]; 5-FU refractory,10 weeks for 5-FU
same,median overall survival (OS),[2]; [6],6.8 months
same,median time to progression (TTP),[2]; [6],10 weeks
same,median overall survival (OS),[2]; [7],6.6 months
same,median time to progression (TTP),[2]; [7],11 weeks
same,Grade 3 and 4 adverse events: anemia,[2]; NCI CTCAE version 3.0,0%
same,Grade 3 and 4 adverse events: hand/foot syndrome,[2]; NCI CTCAE version 3.0,0%
same,patients who achieved stable disease (progression-free for 3 months or greater),[2]; [8],3
same,patients with partial response,[2]; [8],none
same,proportion of patients who achieved stable disease,[2]; [8],27%
same,patients who achieved stable disease (progression-free for 3 months or greater),[2]; [9],6
same,patients with partial response,[2]; [9],1
same,proportion of patients who achieved stable disease,[2]; [9],40%
same,patients with complete response,"[2]; after 12 weeks, evaluable metastatic colorectal cancer patients (20 combination, 15 capecitabine alone), RECIST 1.0",none
same,median overall survival (OS),[2]; [10],10.9 months
same,median time to progression (TTP),[2]; [10],11 weeks
same,Median OS,[2]; all patients,refractory; 10.9 mo.
same,Median TTP,[2]; all patients,refractory; 11 weeks
same,patients who discontinued treatment due to an adverse event,[2]; in vivo,2
same,"PK parameters for capecitabine or its metabolites, Cycle 1 Day 1 vs Cycle 1 Day 11",[3],no statistically significant differences
same,Median OS,[4]; [11],5.3 months
same,Median TTP,[4]; [11],2.3 months
same,Median OS,[4]; [12],6.1 mos.
same,Median TTP,[4]; [12],2.8 mos.
same,Median OS,[4]; [13],5.2 mos.
same,Median TTP,[4]; [13],4 mos.
CC(=O)O[C@@]12CO[C@@H]1C[C@H](O)[C@@]1(C)C(=O)[C@H](O)C3=C(C)[C@@H](OC(=O)[C@H](O)[C@@H](NC(=O)OC(C)(C)C)c4ccccc4)C[C@@](O)([C@@H](OC(=O)c4ccccc4)[C@H]21)C3(C)C [docetaxel],beneficial effect of perifosine (improvement in combination with perifosine) in subjects receiving the chemotherapeutic agent,[5],not to occur
COc1cccc2c1C(=O)c1c(O)c3c(c(O)c1C2=O)C[C@@](O)(C(=O)CO)C[C@@H]3O[C@H]1C[C@H](N)[C@H](O)[C@H](C)O1 [doxorubicin],beneficial effect of perifosine (improvement in combination with perifosine) in subjects receiving the chemotherapeutic agent,[5],not to occur
Nc1ccn([C@@H]2O[C@H](CO)[C@@H](O)C2(F)F)c(=O)n1 [gemcitabine],beneficial effect of perifosine (improvement in combination with perifosine) in subjects receiving the chemotherapeutic agent,[5],not to occur
CCc1c2c(nc3ccc(OC(=O)N4CCC(N5CCCCC5)CC4)cc13)-c1cc3c(c(=O)n1C2)COC(=O)[C@]3(O)CC [irinotecan],beneficial effect of perifosine (improvement in combination with perifosine) in subjects receiving the chemotherapeutic agent,[5],not to occur
CC(=O)O[C@H]1C(=O)[C@@]2(C)[C@H]([C@H](OC(=O)c3ccccc3)[C@]3(O)C[C@H](OC(=O)[C@H](O)[C@@H](NC(=O)c4ccccc4)c4ccccc4)C(C)=C1C3(C)C)[C@]1(OC(C)=O)CO[C@@H]1C[C@@H]2O [paclitaxel],beneficial effect of perifosine (improvement in combination with perifosine) in subjects receiving the chemotherapeutic agent,[5],not to occur
Nc1nc2[nH]cc(CCc3ccc(C(=O)N[C@@H](CCC(=O)O)C(=O)O)cc3)c2c(=O)[nH]1 [pemetrexed],beneficial effect of perifosine (improvement in combination with perifosine) in subjects receiving the chemotherapeutic agent,[5],not to occur
